Measurements published in patent US8871765B2, “Substituted 4-(4-fluoro-3-(piperazine-1-carbonyl)benzyl)phthalazin-1(2H)-one derivatives as poly (ADP-ribose) polymerase-1 inhibitors” (Cadila Healthcare Limited, priority 2010, dated 2014).

Legend:
MCF-7 cell line = assay: Potentiation of cell killing activity of Methyl Methane Sulphonate (MMS) in MCF-7 cells, MTT assay; format: cell-based; conditions: compound at 100 nM, cell survival without/with alkylating agent MMS
Description: Potentiation of cell killing activity of Methyl Methane Sulphonate (MMS) by selected compounds according to present invention was evaluated in MCF-7 cell line obtained from National Centre for Cell Science, Pune, by using MTT assay according to general protocol described in Methods in Molecular Biology, Volume-43, In vitro Toxicity Testing Protocol, Chapter-6, page: 137-149. Compounds were tested for PARP 1 activity based on percent cell survival of MCF-7 cells with alkylating agent MMS.

PARP-1 = biological target: T1, PARP-1 (Homo sapiens, UniProt P09874); assay: PARP-1 inhibitory activity, HT universal colorimetric PARP assay kit (Trevigen); format: biochemical; conditions: HT universal colorimetric PARP assay kit; read-out: PARP-1 activity in vitro IC50 nM)
T1 construct: purchased Trevigen
Description: The compounds were tested for PARP-1 inhibitory activity by using HT universal colorimetric PARP assay kit obtained from Trevigen, following manufacturer's protocol.

T1 sequence (P09874 whole entry): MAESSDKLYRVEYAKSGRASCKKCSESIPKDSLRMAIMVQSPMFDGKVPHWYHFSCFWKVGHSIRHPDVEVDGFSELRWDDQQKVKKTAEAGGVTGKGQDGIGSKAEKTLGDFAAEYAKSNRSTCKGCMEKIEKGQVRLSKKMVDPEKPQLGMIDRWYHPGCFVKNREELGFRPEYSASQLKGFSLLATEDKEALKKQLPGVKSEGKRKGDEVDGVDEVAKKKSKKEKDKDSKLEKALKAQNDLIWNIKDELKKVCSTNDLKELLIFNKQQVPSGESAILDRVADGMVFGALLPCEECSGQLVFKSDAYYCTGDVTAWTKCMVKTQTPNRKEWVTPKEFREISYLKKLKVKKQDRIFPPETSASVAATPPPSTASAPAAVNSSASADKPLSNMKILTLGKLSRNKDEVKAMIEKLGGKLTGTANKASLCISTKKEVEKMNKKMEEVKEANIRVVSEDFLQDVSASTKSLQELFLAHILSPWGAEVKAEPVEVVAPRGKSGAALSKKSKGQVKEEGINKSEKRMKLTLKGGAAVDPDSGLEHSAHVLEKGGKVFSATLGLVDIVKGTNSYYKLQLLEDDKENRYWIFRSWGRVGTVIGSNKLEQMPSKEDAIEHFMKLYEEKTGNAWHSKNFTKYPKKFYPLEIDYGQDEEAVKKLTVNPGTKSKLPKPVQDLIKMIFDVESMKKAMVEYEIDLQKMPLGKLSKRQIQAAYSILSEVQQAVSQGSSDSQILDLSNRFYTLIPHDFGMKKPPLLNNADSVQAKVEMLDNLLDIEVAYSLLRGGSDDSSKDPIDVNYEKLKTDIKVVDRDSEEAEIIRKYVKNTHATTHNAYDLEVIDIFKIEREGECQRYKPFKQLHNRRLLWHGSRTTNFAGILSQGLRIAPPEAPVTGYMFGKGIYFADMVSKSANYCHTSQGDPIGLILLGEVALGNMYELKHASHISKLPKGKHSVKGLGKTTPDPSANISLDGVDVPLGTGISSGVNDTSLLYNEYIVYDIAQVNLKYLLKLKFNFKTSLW

Structure (SMILES) | Survival affected by drug [(−MMS/+MMS)] at 100 nM (MCF-7 cell line) | IC50 (PARP-1)
O=C(c1cc(Cc2n[nH]c(=O)c3ccccc23)ccc1F)N1CCN(C(=O)C2CC2)CC1 [AZD, reference compound] | 2.19 | 
COc1ccc(OC(C)(C)C(=O)N2CCN(C(=O)c3cc(Cc4n[nH]c(=O)c5ccccc45)ccc3F)CC2)cc1 [Example 3, 4-(4-fluoro-3-(4-(2-methyl-2-(4-methoxyphenoxy)propanoyl)piperazine-1-carbonyl)benzyl)phthalazin-1(2H)-one] | 2.07 | 11 nM
CC(C)(Oc1ccccn1)C(=O)N1CCN(C(=O)c2cc(Cc3n[nH]c(=O)c4ccccc34)ccc2F)CC1 [Example 17, 4-(4-fluoro-3-(4-(2-methyl-2-(pyridin-2-yloxy)propanoyl)piperazine-1-carbonyl)benzyl)phthalazin-1(2H)-one] | 1.93 | 13.9 nM
CC(C)(Oc1ccccc1[N+](=O)[O-])C(=O)N1CCN(C(=O)c2cc(Cc3n[nH]c(=O)c4ccccc34)ccc2F)CC1 [Example 19, 4-(4-fluoro-3-(4-(2-methyl-2-(2-nitrophenoxy)propanoyl)piperazine-1-carbonyl)benzyl)phthalazin-1(2H)-one] | 2.19 | 12.4 nM
CC(C)(Oc1ccc(Br)cc1Cl)C(=O)N1CCN(C(=O)c2cc(Cc3n[nH]c(=O)c4ccccc34)ccc2F)CC1 [Example 20, 4-(3-(4-(2-(4-bromo-2-chlorophenoxy)-2-methylpropanoyl)piperazine-1-carbonyl)-4-fluorobenzyl)phthalazin-1(2H)-one] | 2.15 | 14.3 nM
CC(C)(Oc1cccc(C(F)(F)F)c1)C(=O)N1CCN(C(=O)c2cc(Cc3n[nH]c(=O)c4ccccc34)ccc2F)CC1 [Example 21, 4-(4-fluoro-3-(4-(2-methyl-2-(3-(trifluoromethyl)phenoxy)propanoyl)piperazine-1-carbonyl)benzyl)phthalazin-1(2H)-one] | 1.62 | 12 nM
CC(C)(Sc1ccc(F)cc1)C(=O)N1CCN(C(=O)c2cc(Cc3n[nH]c(=O)c4ccccc34)ccc2F)CC1 [Example 22, 4-(4-fluoro-3-(4-(2-((4-fluorophenyl)thio)-2-methylpropanoyl)piperazine-1-carbonyl)benzyl)phthalazin-1(2H)-one] | 2.1 | 5.3 nM
CC(C)(C(=O)N1CCN(C(=O)c2cc(Cc3n[nH]c(=O)c4ccccc34)ccc2F)CC1)S(=O)(=O)c1ccccc1 [Example 23, 4-(4-fluoro-3-(4-(2-methyl-2-(phenylsulfonyl)propanoyl)piperazine-1-carbonyl)benzyl)phthalazin-1(2H)-one] | 2.11 | 4.23 nM
CC(C)(C(=O)N1CCN(C(=O)c2cc(Cc3n[nH]c(=O)c4ccccc34)ccc2F)CC1)S(=O)(=O)c1ccc(F)cc1 [Example 24, 4-(4-fluoro-3-(4-(2-((4-fluorophenyl)sulfonyl)-2-methylpropanoyl)piperazine-1-carbonyl)benzyl)phthalazin-1(2H)-one] | 2.28 | 4.66 nM
CC(C)(C(=O)N1CCN(C(=O)c2cc(Cc3n[nH]c(=O)c4ccccc34)ccc2F)CC1)[S+]([O-])c1ccc(F)cc1 (stereo not drawn) [Example 25, 4-(4-fluoro-3-(4-(2-((4-fluorophenyl)sulfinyl)-2-methylpropanoyl)piperazine-1-carbonyl)benzyl)phthalazin-1(2H)-one] | 2.15 | 5.94 nM
CC(C)(Oc1ccc(F)cc1F)C(=O)N1CCN(C(=O)c2cc(Cc3n[nH]c(=O)c4ccccc34)ccc2F)CC1 [Example 26, 4-(3-(4-(2-(2,4-difluorophenoxy)-2-methylpropanoyl)piperazine-1-carbonyl)-4-fluorobenzyl)phthalazin-1(2H)-one] | 2.59 | 6.43 nM
CC(C)(Sc1ccc(F)cc1F)C(=O)N1CCN(C(=O)c2cc(Cc3n[nH]c(=O)c4ccccc34)ccc2F)CC1 [Example 27, 4-(3-(4-(2-((2,4-difluorophenyl)thio)-2-methylpropanoyl)piperazine-1-carbonyl)-4-fluorobenzyl)phthalazin-1(2H)-one] | 2.49 | 5.17 nM
COc1cccc(SC(C)(C)C(=O)N2CCN(C(=O)c3cc(Cc4n[nH]c(=O)c5ccccc45)ccc3F)CC2)c1 [Example 28, 4-(4-fluoro-3-(4-(2-((3-methoxyphenyl)thio)-2-methylpropanoyl)piperazine-1-carbonyl)benzyl)phthalazin-1(2H)-one] | 2.08 | 7.08 nM
CC(C)(Sc1ccccc1Br)C(=O)N1CCN(C(=O)c2cc(Cc3n[nH]c(=O)c4ccccc34)ccc2F)CC1 [Example 29, 4-(3-(4-(2-((2-bromophenyl)thio)-2-methylpropanoyl)piperazine-1-carbonyl)-4-fluorobenzyl)phthalazin-1(2H)-one] | 2.22 | 8.6 nM
CC(C)(Sc1ccc(Cl)c(Cl)c1)C(=O)N1CCN(C(=O)c2cc(Cc3n[nH]c(=O)c4ccccc34)ccc2F)CC1 [Example 30, 4-(3-(4-(2-((3,4-dichlorophenyl)thio)-2-methylpropanoyl)piperazine-1-carbonyl)-4-fluorobenzyl)phthalazin-1(2H)-one] | 2.22 | 9.38 nM
CC(C)(Sc1ccc(Cl)cc1Cl)C(=O)N1CCN(C(=O)c2cc(Cc3n[nH]c(=O)c4ccccc34)ccc2F)CC1 [Example 31, 4-(3-(4-(2-((2,4-dichlorophenyl)thio)-2-methylpropanoyl)piperazine-1-carbonyl)-4-fluorobenzyl)phthalazin-1(2H)-one] | 1.94 | 3.05 nM
CC(C)(Sc1cccc(F)c1)C(=O)N1CCN(C(=O)c2cc(Cc3n[nH]c(=O)c4ccccc34)ccc2F)CC1 [Example 32, 4-(4-fluoro-3-(4-(2-((3-fluorophenyl)thio)-2-methylpropanoyl)piperazine-1-carbonyl)benzyl)phthalazin-1(2H)-one] | 2.08 | 5.7 nM
CC(C)(Sc1cc(Cl)ccc1Cl)C(=O)N1CCN(C(=O)c2cc(Cc3n[nH]c(=O)c4ccccc34)ccc2F)CC1 [Example 33, 4-(3-(4-(2-((2,5-dichlorophenyl)thio)-2-methylpropanoyl)piperazine-1-carbonyl)-4-fluorobenzyl)phthalazin-1(2H)-one] | 1.98 | 7.9 nM
CC(C)(Nc1ccc(F)cc1)C(=O)N1CCN(C(=O)c2cc(Cc3n[nH]c(=O)c4ccccc34)ccc2F)CC1 [Example 34, 4-(4-fluoro-3-(4-(2-((4-fluorophenyl)amino)-2-methylpropanoyl)piperazine-1-carbonyl)-benzyl)phthalazin-1(2H)-one] | 2.85 | 6.68 nM
CC(C)(Nc1ccccc1)C(=O)N1CCN(C(=O)c2cc(Cc3n[nH]c(=O)c4ccccc34)ccc2F)CC1 [Example 35, 4-(4-fluoro-3-(4-(2-methyl-2-(phenylamino)-propanoyl)piperazine-1-carbonyl)benzyl)phthalazin-1(2H)-one] | 3.33 | 3.56 nM
CC(C)(SC1CCCC1)C(=O)N1CCN(C(=O)c2cc(Cc3n[nH]c(=O)c4ccccc34)ccc2F)CC1 [Example 36, 4-(3-(4-(2-(cyclopentylthio)-2-methylpropanoyl)piperazine-1-carbonyl)-4-fluorobenzyl)phthalazin-1(2H)-one] | 2.59 | 5.17 nM
Cc1cc(OC(C)(C)C(=O)N2CCN(C(=O)c3cc(Cc4n[nH]c(=O)c5ccccc45)ccc3F)CC2)cc(C)c1Br [Example 37, 4-(3-(4-(2-(4-bromo-3,5-dimethylphenoxy)-2-methylpropanoyl)piperazine-1-carbonyl)-4-fluorobenzyl)phthalazin-1(2H)-one] | 1.61 | 16.5 nM
CC(C)(Sc1ccccn1)C(=O)N1CCN(C(=O)c2cc(Cc3n[nH]c(=O)c4ccccc34)ccc2F)CC1 [Example 38, 4-(4-fluoro-3-(4-(2-methyl-2-(pyridin-2-ylthio)propanoyl)piperazine-1-carbonyl)benzyl)phthalazin-1(2H)-one] | 1.96 | 5 nM
CC(C)(C(=O)N1CCN(C(=O)c2cc(Cc3n[nH]c(=O)c4ccccc34)ccc2F)CC1)[S+]([O-])c1ccc(Cl)cc1Cl (stereo not drawn) [Example 39, 4-(3-(4-(2-(2,4-dichlorophenylsulfinyl)-2-methylpropanoyl)piperazine-1-carbonyl)-4-fluorobenzyl)phthalazin-1(2H)-one] | 2.29 | 9.47 nM
CC(C)(Sc1ccccc1)C(=O)N1CCN(C(=O)c2cc(Cc3n[nH]c(=O)c4ccccc34)ccc2F)CC1 [Example 46, 4-(4-fluoro-3-(4-(2-methyl-2-(phenylthio)propanoyl)piperazine-1-carbonyl)benzyl)phthalazin-1(2H)-one] | 2.28 | 10.6 nM
CC(C)(Sc1ccc(Br)cc1)C(=O)N1CCN(C(=O)c2cc(Cc3n[nH]c(=O)c4ccccc34)ccc2F)CC1 [Example 47, 4-(3-(4-(2-((4-bromophenyl)thio)-2-methylpropanoyl)piperazine-1-carbonyl)-4-fluorobenzyl)phthalazin-1(2H)-one] | 2.12 | 9.16 nM
